Tests used:
Assay in all cases: relative viability (nuclei count vs DMSO), 5 days (fraction); higher = more cells survive
[1] = compound: CC1=CC(=CC=C1)NC2=NC(=CS2)C3=CC=NC=C3
In short: (§1)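 Viability here means nuclei in treated wells divided by nuclei in vehicle wells, reported as the median across plates. Only plates with control CV below 25% and at least one doubling passed. Lung cancer cell lines in 1536-well plates were exposed to five √10-spaced library-drug doses for 5 days and counted from 4× Hoechst images in MetaXpress.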

[2] = compound: Cc1ccc(NC(=O)c2ccc(CN3CCN(C)CC3)cc2)cc1Nc1nc(-c2cccnc2)cs1 [Masitinib]
In short: as §1

[3] = compound: CC1=CC(=CC=C1)NC2=NC(=CS2)C3=CC=NC=C3 + COc1cc2c(Oc3ccc(NC(=O)C4(C(=O)Nc5ccc(F)cc5)CC4)cc3F)ccnc2cc1OCCCN1CCOCC1 [Foretinib] (partner 0.25 µM)
In short: (§2)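 A single step with final 0.05% Triton X-100, 1% formaldehyde and 1 ug/ml Hoechst fixed the cells and stained nuclei 5 days after treatment. Lung cancer cell lines in 1536-well plates had been treated by pin tool the day after seeding with one drug alone or a fixed anchor-drug dose plus five library-drug doses (not always all listed) in √10 steps, and nuclei were counted on 4× images. Relative viability is the ratio of nuclei in treated wells to nuclei in vehicle wells, taken as the median of duplicate plates.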

[4] = compound: CC1=CC(=CC=C1)NC2=NC(=CS2)C3=CC=NC=C3 + CS(=O)(=O)CCNCc1ccc(-c2ccc3ncnc(Nc4ccc(OCc5cccc(F)c5)c(Cl)c4)c3c2)o1 [Lapatinib] (partner 2 µM)
In short: as §2

**Q.** For UMC-11, which relative viability ([1]; 0.08 µM) is on record?
**A.** The relative viability was 0.872.

**Q.** What about the relative viability ([1]; 0.253 µM) of the same cell line?
**A.** The relative viability was 0.927.

**Q.** What about the relative viability ([1]; 0.8 µM) of the same cell line?
**A.** Its relative viability is 0.927.

**Q.** What about the relative viability ([1]; 2.53 µM) of the same cell line?
**A.** The relative viability was 0.93.

**Q.** What about the relative viability ([1]; 8 µM) of the same cell line?
**A.** Its relative viability is 1.03.

**Q.** What about the relative viability ([2]; 0.01 µM) of the same cell line?
**A.** The relative viability was 0.926.

**Q.** And the relative viability ([2]; 0.03162 µM)?
**A.** The relative viability was 0.969.

**Q.** What about the relative viability ([2]; 0.1 µM) of the same cell line?
**A.** The relative viability was 1.09.

**Q.** What about the relative viability ([2]; 0.3162 µM) of the same cell line?
**A.** Its relative viability is 0.961.

**Q.** And the relative viability ([2]; 1 µM)?
**A.** Its relative viability is 1.06.

**Q.** And the relative viability ([3]; first compound 0.08 µM)?
**A.** Its relative viability is 1.04.

**Q.** What about the relative viability ([3]; first compound 0.253 µM) of the same cell line?
**A.** The relative viability was 1.04.

**Q.** And the relative viability ([3]; first compound 0.8 µM)?
**A.** Its relative viability is 1.02.

**Q.** What about the relative viability ([3]; first compound 2.53 µM) of the same cell line?
**A.** Its relative viability is 1.15.

**Q.** What about the relative viability ([3]; first compound 8 µM) of the same cell line?
**A.** The relative viability was 1.17.

**Q.** What about the relative viability ([4]; first compound 0.08 µM) of the same cell line?
**A.** Its relative viability is 0.839.

**Q.** And the relative viability ([4]; first compound 0.253 µM)?
**A.** The relative viability was 0.85.

**Q.** What about the relative viability ([4]; first compound 0.8 µM) of the same cell line?
**A.** Its relative viability is 0.885.

**Q.** What about the relative viability ([4]; first compound 2.53 µM) of the same cell line?
**A.** Its relative viability is 0.934.

**Q.** What about the relative viability ([4]; first compound 8 µM) of the same cell line?
**A.** Its relative viability is 1.02.
